Read-outs that look alike come from different tables or passages of the source.
What was measured:
[1] = tested on: larvae of the mustard beetle (Phaedon cochleariae); assay: Phaedon test (PHAECO spray treatment); conditions: Phaedon cochleariae, in Brassica rapa, foliar, read-out: effect in % (beetle larvae killed)
[2] = log P determination by HPLC (EEC Directive 79/831 Annex V.A8); type: physicochemical
Procedure: The measurements were carried out using an Agilent 1100 LC system with a 50*4.6 Zorbax Eclipse C18 1.8 μm column (oven temperature 55° C., flow rate 2.0 ml/min).
The following mobile phases were used:
Mobile phase A: acetonitrile+1000 μl of formic acid/l
Mobile phase B: Millipore water+900 μl of formic acid/l

[3] = tested on: caterpillars of the armyworm (Spodoptera frugiperda); assay: Spodoptera frugiperda test (SPODFR spray treatment); type: in vivo; conditions: Spodoptera frugiperda, foliar, read-out: effect in % (caterpillars killed)
Source text: Solvent: 78.0 parts by weight of acetone

[4] = reversed-phase HPLC, Zorbax Eclipse C18 column, determined by HPLC according to EEC Directive 79/831 Annex V.A8, read-out: log P
[5] = application rate 100 g/ha, maize leaf discs
[6] = by HPLC according to EEC Directive 79/831 Annex V.A8, read-out: log P
[7] = reversed-phase HPLC, Zorbax Eclipse C18 column, by HPLC according to EEC Directive 79/831 Annex V.A8, read-out: log P

chromatographic logP [2, 4] | chromatographic logP [2, 7] | SMILES | pest or weed control at 100 g/ha [1] [%] | pest or weed control at 100 g/ha [3, 5] [%] | chromatographic logP ([2]; log P) | pest or weed control at 100 g/ha ([3]; in Zea mays) [%] | chromatographic logP [2, 6]
3.91 |  | Cc1cc(Cl)cc(C(=O)NC(C)(C)C)c1NC(=O)c1cc(Cn2nnnc2C(F)(F)C(F)(F)F)nn1-c1ncccc1Br [Example 514] | ≥ 80 | ≥ 80 |  |  | 
 |  | CC(NC(=O)c1cc(Cl)cc(Cl)c1NC(=O)c1cc(Cn2nnc(C(F)(F)F)n2)nn1-c1ncccc1Cl)C1CC1 (stereo not drawn) [Example 56] | ≥ 80 |  | 3.71 | ≥ 80 | 
3.51 |  | CCNC(=O)c1cc(I)cc(C)c1NC(=O)c1cc(Cn2nnc(C(F)(F)F)n2)nn1-c1ncccc1Br [Example 408] | ≥ 80 | ≥ 80 |  |  | 
 |  | CCNC(=O)c1cc(I)cc(C)c1NC(=O)c1cc(Cn2nnc(C(F)(C(F)(F)F)C(F)(F)F)n2)nn1-c1ncccc1Cl [Example 380] | ≥ 80 |  | 4.2 | ≥ 80 | 
 |  | Cc1cc(C#N)cc(C(=O)NCC2CC2)c1NC(=O)c1cc(Cn2nnc(C(F)(F)C(F)(F)F)n2)nn1-c1ncccc1Cl [Example 138] | ≥ 80 |  | 3.56 | ≥ 80 | 
 |  | Cc1cc(I)cc(C(N)=O)c1NC(=O)c1cc(Cn2nnc(C(F)(F)C(F)(F)C(F)(F)F)n2)nn1-c1ncccc1Cl [Example 110] | ≥ 80 |  |  | ≥ 80 | 3.7
 |  | O=C(NC1CCC1)c1cc(Cl)cc(Cl)c1NC(=O)c1cc(Cn2nnc(C(F)(F)F)n2)nn1-c1ncccc1Cl [Example 62] | ≥ 80 |  | 3.51 | ≥ 80 | 
 |  | O=C(NCC1CC1)c1cc(Cl)cc(Cl)c1NC(=O)c1cc(Cn2nnc(C(F)(F)F)n2)nn1-c1ncccc1Cl [Example 63] | ≥ 80 |  | 3.47 | ≥ 80 | 
3.19 |  | CNC(=O)c1cc(Cl)cc(C)c1NC(=O)c1cc(Cn2nnc(C(F)(F)F)n2)nn1-c1ccccc1 [Example 404] | ≥ 80 | ≥ 80 |  |  | 
 | 4.5 | Cc1cc(Cl)cc(C(=O)NC(C)C2CC2)c1NC(=O)c1cc(Cn2nnc(C(F)(C(F)(F)F)C(F)(F)F)n2)nn1-c1ncccc1Cl (stereo not drawn) [Example 366] | ≥ 80 | ≥ 80 |  |  | 
3.91 |  | Cc1cc(C#N)cc(C(=O)NC(C)C)c1NC(=O)c1cc(Cn2nnc(C(F)(F)C(F)(F)F)n2)nn1-c1ccccc1Cl [Example 539] | ≥ 80 | ≥ 80 |  |  | 
 |  | Cc1cc(I)cc(C(=O)NC(C)C2CC2)c1NC(=O)c1cc(Cn2nnc(C(F)(F)F)n2)nn1-c1ncccc1Cl (stereo not drawn) [Example 68] | ≥ 80 |  | 4.01 | ≥ 80 | 
 |  | Cc1cc(I)cc(C(=O)NC2CC2)c1NC(=O)c1cc(Cn2nnc(C(F)(F)F)n2)nn1-c1ncccc1Cl [Example 69] | ≥ 80 |  | 3.46 | ≥ 80 | 
 |  | Cc1cc(F)cc(C(=O)NC(C)C2CC2)c1NC(=O)c1cc(Cn2nnc(C(F)(F)C(F)(F)F)n2)nn1-c1ncccc1Cl (stereo not drawn) [Example 148] | ≥ 80 |  | 3.8 | ≥ 80 | 
 |  | CSC[C@H](C)NC(=O)c1cc(Cl)cc(C)c1NC(=O)c1cc(Cn2nnc(C(F)F)n2)nn1-c1ncccc1Cl [Example 302] | ≥ 80 |  | 3.18 | ≥ 80 | 
 |  | Cc1cc(Br)cc(C(=O)NC2CCC2)c1NC(=O)c1cc(Cn2nnc(C(F)(F)F)n2)nn1-c1ncccc1Cl [Example 50] | ≥ 80 |  | 3.71 | ≥ 80 | 
 |  | C=CCNC(=O)c1cc(Cl)cc(C)c1NC(=O)c1cc(Cn2nnc(C(F)(F)F)n2)nn1-c1ncccc1Cl [Example 319] | ≥ 80 |  | 3.34 | ≥ 80 | 
 |  | Cc1cc(C#N)cc(C(=O)NCC#N)c1NC(=O)c1cc(Cn2nnc(C(F)(F)C(F)(F)F)n2)nn1-c1ncccc1Cl [Example 210] | ≥ 80 |  | 3.01 | ≥ 80 | 
 |  | Cc1cc(Cl)cc(C(=O)NC(C)C2CC2)c1NC(=O)c1cc(Cn2nnc(C(F)(F)C(F)(F)F)n2)nn1-c1ncccc1Cl (stereo not drawn) [Example 126] | ≥ 80 |  | 4.25 | ≥ 80 | 
 |  | Cc1cc(C#N)cc(C(=O)NC(C2CC2)C2CC2)c1NC(=O)c1cc(Cn2nnc(C(F)(F)F)n2)nn1-c1ncccc1Cl [Example 87] | ≥ 80 |  | 3.65 | ≥ 80 | 

chromatographic logP [2, 4] | chromatographic logP [2, 7] | SMILES | pest or weed control at 100 g/ha [1] [%] | pest or weed control at 100 g/ha [3, 5] [%] | chromatographic logP ([2]; log P) | pest or weed control at 100 g/ha ([3]; in Zea mays) [%] | chromatographic logP [2, 6]
 |  | O=C(NC1CC1)c1cc(Cl)cc(Cl)c1NC(=O)c1cc(Cn2nnnc2C(F)(F)C(F)(F)F)nn1-c1ncccc1Cl [Example 204] | ≥ 80 |  | 3.24 | ≥ 80 | 
 |  | Cc1cc(Cl)cc(C(=O)NC(C)(C)C)c1NC(=O)c1cc(Cn2nnc(C(F)(F)C(F)(F)C(F)(F)F)n2)nn1-c1ncccc1Cl [Example 107] | ≥ 80 |  |  | ≥ 80 | 4.6
 |  | Cc1cc(C#N)cc(C(=O)NCC2CCCCC2)c1NC(=O)c1cc(Cn2nnnc2C(F)(F)F)nn1-c1ncccc1Cl [Example 195] | ≥ 80 |  | 3.26 | ≥ 80 | 
 |  | Cc1cc(Cl)cc(C(=O)NC(C)(C)C)c1NC(=O)c1cc(C(C)n2nnc(C(F)(F)F)n2)nn1-c1ncccc1Cl (stereo not drawn) [Example 541] | ≥ 80 |  | 4.1 | ≥ 80 | 
 |  | Cc1cc(I)cc(C(N)=O)c1NC(=O)c1cc(Cn2nnc(C(F)(C(F)(F)F)C(F)(F)F)n2)nn1-c1ncccc1Cl [Example 382] | ≥ 80 |  | 3.67 | ≥ 80 | 
 |  | Cc1cc(Br)cc(C(=O)NC2CC2)c1NC(=O)c1cc(Cn2nnc(C(F)(F)C(F)(F)F)n2)nn1-c1ncccc1Cl [Example 145] | ≥ 80 |  | 3.74 | ≥ 80 | 
 |  | CCNC(=O)c1cc(Br)cc(C)c1NC(=O)c1cc(Cn2nnc(C(F)(F)F)n2)nn1-c1ncccc1Cl [Example 34] | ≥ 80 |  | 3.32 | ≥ 80 | 
 | 4.09 | Cc1cc(I)cc(C(=O)NC(C)(C)C)c1NC(=O)c1cc(Cn2nnc(C(F)(F)F)n2)nn1-c1ncccc1Br [Example 352] | ≥ 80 | ≥ 80 |  |  | 
 | 3.74 | CCC(COC(F)(F)F)NC(=O)c1cc(C#N)cc(C)c1NC(=O)c1cc(Cn2nnc(C(F)(F)F)n2)nn1-c1ncccc1Cl (stereo not drawn) [Example 117] | ≥ 80 | ≥ 80 |  |  | 
 |  | CNC(=O)c1cc(C#N)cc(C)c1NC(=O)c1cc(Cn2nnc(C(C)(C)C)n2)nn1-c1ncccc1Cl [Example 101] | ≥ 80 |  | 2.62 | ≥ 80 | 
3.78 |  | CNC(=O)c1cc(Cl)cc(C)c1NC(=O)c1cc(Cn2nnc(C(F)(F)C(F)(F)F)n2)nn1-c1ccccc1Cl [Example 402] | ≥ 80 | ≥ 80 |  |  | 
 |  | Cc1cc(Br)cc(C(=O)NC(C)C)c1NC(=O)c1cc(Cn2nnc(C(F)(F)F)n2)nn1-c1ncccc1Cl [Example 39] | ≥ 80 |  | 3.57 | ≥ 80 | 
3.48 |  | Cc1cc(C#N)cc(C(=O)NCC(F)(F)F)c1NC(=O)c1cc(Cn2nnc(C(F)(F)F)n2)nn1-c1ccccc1Cl [Example 537] | ≥ 80 | ≥ 80 |  |  | 
 | 3.95 | Cc1cc(C#N)cc(C(=O)NC(C)(C)C)c1NC(=O)c1cc(Cn2nnc(C(F)(F)F)n2)nn1-c1ccccc1Br [Example 347] | ≥ 80 | ≥ 80 |  |  | 
 | 3.28 | CNC(=O)c1cc(Br)cc(C)c1NC(=O)c1cc(Cn2nnc(C(F)(F)F)n2)nn1-c1ncccc1C(F)(F)F [Example 228] | ≥ 80 | ≥ 80 |  |  | 
 | 3.76 | Cc1cc(Br)cc(C(=O)NC(C)C)c1NC(=O)c1cc(Cn2nnc(C(F)(F)F)n2)nn1-c1ncccc1C(F)(F)F [Example 249] | ≥ 80 | ≥ 80 |  |  | 
 |  | O=C(NC1CCC1)c1cc(Cl)cc(Cl)c1NC(=O)c1cc(Cn2nnc(C(F)F)n2)nn1-c1ncccc1Cl [Example 291] | ≥ 80 |  | 3.06 | ≥ 80 | 
 |  | CCNC(=O)c1cc(Cl)cc(C)c1NC(=O)c1cc(Cn2nnc(C(F)(C(F)(F)F)C(F)(F)F)n2)nn1-c1ncccc1Cl [Example 364] | ≥ 80 |  | 3.96 | ≥ 80 | 
 |  | Cc1cc(Br)cc(C(=O)NCC2CC2)c1NC(=O)c1cc(Cn2nnc(C(F)(F)F)n2)nn1-c1ncccc1Cl [Example 47] | ≥ 80 |  | 3.88 | ≥ 80 | 
 |  | CCNC(=O)c1cc(Cl)cc(C)c1NC(=O)c1cc(Cn2nnc(C(F)(F)F)n2)nn1-c1ncccc1Cl [Example 33] | ≥ 80 |  | 3.23 | ≥ 80 | 

Source: patent US8324390B2, “Tetrazole-substituted anthranilamides as pesticides” (Bayer CropScience AG, priority 2008, dated 2012)
